# Laboratory results taken from US8227428B2, “Anti-infammatory macrolide” (Glaxo Group Limited, priority 2009, dated 2012).
# Tests used:
# [1] = Stability in bio-relevant media (SGF, Fasted SIF, Fed SIF) at 37° C.; format: physicochemical
# Experimental: (§1) Stability in buffer solutions pH 2 to pH 8 at 25° C., and in bio-relevant media (SGF pH 1.6, Fasted SIF pH 6.5 and Fed SIF pH 5.0) at 37° C., during 24 hours is monitored. The samples are analysed by LC/MS.
# SGF (Simulated Gastric Fluid) pH 1.6
# Fasted SIF (Simulated Intestinal Fluid) pH 6.5
# Fed SIF (Simulated Intestinal Fluid) pH 5.0
# (§2) Flow: 0.3 mL/min Column temp.: 25° C. Sample temp.: 25° C. (for stability assay in buffer solutions) • 37° C. (for stability assay in bio-relevant media) Injector volume: 3 μL (without injection program) MS Conditions: Instrument HP MS API-ES, positive ion mode Mass Range: 150-1500 Fragmentor: 100 Gain: 1.0 Treshold: 150 Step size: 0.20 Gas Temperature: 350° C. Drying Gas Flow: 13 L/min Nebulizer Pressure: 35 psig Capillary Voltage Positive 4000 V • Negative 4000 V Sample Preparation: a) For Stability Assay in Buffer Solutions
# b) For Stability Assay in Bio-Relevat Media
# b1) For SGF Media pH 1.6 Testing:
# Compounds are dissolved in SGF media pH 1.6 to give 0.2 mg/mL solution in case of compounds 1 and 2, and to give 0.1 mg/mL solution in case of compound 3. Solutions are then stored in a water bath at 37° C. and removed at the proper time point for LC/MS analysis. Before analysis, pH values of prepared sample solutions are checked and adjusted if necessary.
# b2) For Fasted SIF Media pH 6.5 Testing:
# (§3) Compounds are dissolved in Fasted SIF media pH 6.5 to give 2 mg/mL solution. Solutions are then dispatched into vials that are stored in a water bath at 37° C. and removed at the proper time point and diluted 10 times with CH3CN for LC/MS analysis. Before analysis, pH values of prepared sample solutions are checked and adjusted if necessary.
# b3) For Fed SIF Media pH 5.0 Testing:
# as §3, with “Fed” for “Fasted”, “5.0” for “6.5”, “40” for “10”
# [2] = Stability in buffer solutions pH 2 to pH 8 at 25° C.; format: physicochemical
# Experimental: as §1
# Buffer Solutions and Physiologically Relevant Media Used in Stability Assay:
# LC Conditions: Instrument HP1100
# Column: Waters XBridge C18, 2.1×50 mm, 3.5 μm
# Guard column: Waters XBridge C18, 2.1×10 mm, 3.5 μm
# • A) 0.1% HCOOH/H2O • B) 0.1% HCOOH/CH3CN Gradient Timetable: […]
# as §2
# Compounds are dissolved in CH3CN to produce a 1 mg/mL stock solution. The stock solution is diluted to a concentration of 0.2 mg/mL (1 mL solution in 4 mL buffer) with appropriate buffer to produce a working solution.
# Each solution at each pH is then dispatched into vials that are sealed and stored at room temperature in order to be analyzed at the proper time point. Before analysis, pH values of prepared sample solutions are checked and adjusted if neccessary.
compound,measurement,setting,value
"CC[C@H]1OC(=O)[C@H](C)[C@@H](O[C@H]2C[C@@](C)(OC)[C@@H](OC(=O)CN(CC)CC)[C@H](C)O2)[C@H](C)[C@@H](O[C@@H]2O[C@H](C)C[C@H](N(C)C)[C@H]2O)[C@](C)(OC)C[C@@H](C)C(=O)N[C@H](C)[C@@H](O)[C@]1(C)O [Example 3, 4″-O-(2-diethylaminoethanoyl)-6-O-methyl-9a-aza-9a-homoerythromycin A]",Percentage (Area %) of the compound observed in Bio-relevant media,"[1]; Fasted SIF pH 6.5, 37° C., 1 h",99.2 Area %
same,Percentage (Area %) of the compound observed in Bio-relevant media,"[1]; Fasted SIF pH 6.5, 37° C., 2 h",98.7 Area %
same,Percentage (Area %) of the compound observed in Bio-relevant media,"[1]; Fasted SIF pH 6.5, 37° C., 3 h",98.3 Area %
same,Percentage (Area %) of the compound observed in Bio-relevant media,"[1]; Fasted SIF pH 6.5, 37° C., 4 h",97.8 Area %
same,Percentage (Area %) of the compound observed in Bio-relevant media,"[1]; Fasted SIF pH 6.5, 37° C., 5 h",97.6 Area %
same,Percentage (Area %) of the compound observed in Bio-relevant media,"[1]; Fasted SIF pH 6.5, 37° C., 24 h",95.1 Area %
same,Percentage (Area %) of the compound observed in Bio-relevant media,"[1]; Fasted SIF pH 6.5, 37° C., Initial",100 Area %
same,Percentage (Area %) of the compound observed in Bio-relevant media,"[1]; Fed SIF pH 5.0, 37° C., 1 h",100 Area %
same,Percentage (Area %) of the compound observed in Bio-relevant media,"[1]; Fed SIF pH 5.0, 37° C., 2 h",99.9 Area %
same,Percentage (Area %) of the compound observed in Bio-relevant media,"[1]; Fed SIF pH 5.0, 37° C., 3 h",100 Area %
same,Percentage (Area %) of the compound observed in Bio-relevant media,"[1]; Fed SIF pH 5.0, 37° C., 4 h",99.9 Area %
same,Percentage (Area %) of the compound observed in Bio-relevant media,"[1]; Fed SIF pH 5.0, 37° C., 5 h",99.8 Area %
same,Percentage (Area %) of the compound observed in Bio-relevant media,"[1]; Fed SIF pH 5.0, 37° C., 24 h",99.8 Area %
same,Percentage (Area %) of the compound observed in Bio-relevant media,"[1]; Fed SIF pH 5.0, 37° C., Initial",100 Area %
same,Percentage (Area %) of the compound observed in Bio-relevant media,"[1]; SGF pH 1.6, 37° C., 1 h",98.5 Area %
same,Percentage (Area %) of the compound observed in Bio-relevant media,"[1]; SGF pH 1.6, 37° C., 2 h",98.5 Area %
same,Percentage (Area %) of the compound observed in Bio-relevant media,"[1]; SGF pH 1.6, 37° C., 3 h",98.0 Area %
same,Percentage (Area %) of the compound observed in Bio-relevant media,"[1]; SGF pH 1.6, 37° C., 4 h",98.0 Area %
same,Percentage (Area %) of the compound observed in Bio-relevant media,"[1]; SGF pH 1.6, 37° C., 5 h",98.0 Area %
same,Percentage (Area %) of the compound observed in Bio-relevant media,"[1]; SGF pH 1.6, 37° C., 6 h",95.9 Area %
same,Percentage (Area %) of the compound observed in Bio-relevant media,"[1]; SGF pH 1.6, 37° C., 8 h",95.7 Area %
same,Percentage (Area %) of the compound observed in Bio-relevant media,"[1]; SGF pH 1.6, 37° C., 10 h",95.0 Area %
same,Percentage (Area %) of the compound observed in Bio-relevant media,"[1]; SGF pH 1.6, 37° C., 12 h",95.0 Area %
same,Percentage (Area %) of the compound observed in Bio-relevant media,"[1]; SGF pH 1.6, 37° C., 24 h",94.5 Area %
same,Percentage (Area %) of the compound observed in Bio-relevant media,"[1]; SGF pH 1.6, 37° C., Initial",100 Area %
same,stability in all three bio relevant media,"[1]; SGF pH 1.6, Fasted SIF pH 6.5, Fed SIF pH 5.0, 37° C., during 24 hours",Examples 1 and 3 showed stability in all three bio relevant media.
same,stability in buffers pH 2 to 8,"[2]; 25° C., during 24 hours",showed stability
same,Percentage (Area %) of the compound observed in buffers,"[2]; pH 2, 25° C., 2 h",99.4 Area %
same,Percentage (Area %) of the compound observed in buffers,"[2]; pH 2, 25° C., 4 h",99.5 Area %
same,Percentage (Area %) of the compound observed in buffers,"[2]; pH 2, 25° C., 6 h",99.5 Area %
same,Percentage (Area %) of the compound observed in buffers,"[2]; pH 2, 25° C., 8 h",99.5 Area %
same,Percentage (Area %) of the compound observed in buffers,"[2]; pH 2, 25° C., 12 h",99.6 Area %
same,Percentage (Area %) of the compound observed in buffers,"[2]; pH 2, 25° C., 14 h",99.6 Area %
same,Percentage (Area %) of the compound observed in buffers,"[2]; pH 2, 25° C., 18 h",99.6 Area %
same,Percentage (Area %) of the compound observed in buffers,"[2]; pH 2, 25° C., 20 h",99.5 Area %
same,Percentage (Area %) of the compound observed in buffers,"[2]; pH 2, 25° C., 22 h",99.5 Area %
same,Percentage (Area %) of the compound observed in buffers,"[2]; pH 2, 25° C., 24 h",99.5 Area %
same,Percentage (Area %) of the compound observed in buffers,"[2]; pH 2, 25° C., Initial",100 Area %
same,Percentage (Area %) of the compound observed in buffers,"[2]; pH 3, 25° C., 2 h",99.8 Area %
same,Percentage (Area %) of the compound observed in buffers,"[2]; pH 3, 25° C., 4 h",99.6 Area %
same,Percentage (Area %) of the compound observed in buffers,"[2]; pH 3, 25° C., 6 h",99.5 Area %
same,Percentage (Area %) of the compound observed in buffers,"[2]; pH 3, 25° C., 8 h",99.8 Area %
same,Percentage (Area %) of the compound observed in buffers,"[2]; pH 3, 25° C., 12 h",99.6 Area %
same,Percentage (Area %) of the compound observed in buffers,"[2]; pH 3, 25° C., 14 h",99.8 Area %
same,Percentage (Area %) of the compound observed in buffers,"[2]; pH 3, 25° C., 18 h",99.7 Area %
same,Percentage (Area %) of the compound observed in buffers,"[2]; pH 3, 25° C., 20 h",99.6 Area %
same,Percentage (Area %) of the compound observed in buffers,"[2]; pH 3, 25° C., 22 h",99.4 Area %
same,Percentage (Area %) of the compound observed in buffers,"[2]; pH 3, 25° C., 24 h",99.4 Area %
same,Percentage (Area %) of the compound observed in buffers,"[2]; pH 3, 25° C., Initial",100 Area %
same,Percentage (Area %) of the compound observed in buffers,"[2]; pH 4, 25° C., 2 h",99.1 Area %
same,Percentage (Area %) of the compound observed in buffers,"[2]; pH 4, 25° C., 4 h",99.0 Area %
